Paper PMC8490515, “Neuromedin B receptor stimulation of Cav3.2 T-type Ca^2+ channels in primary sensory neurons mediates peripheral pain hypersensitivity” (Theranostics, 2021)

Experiments:
[1] = test system: heat hypersensitivity in mice; assay: Heat test, head withdrawal latency (HWL); assay type: in vivo, mouse; conditions: intra-TG 1 nmol or 5 nmol
Description: For experiments that several time points are needed to be checked in 24 h, von Frey test was used, as orofacial stimulation test can be checked only once a day, [32]. For the von Frey test, the mice were placed in metal mesh boxes and allowed 30 min for habituation before examination. Mechanical hypersensitivity was assessed as described in previous studies, [33]. In brief, the threshold was assessed with a set of von Frey hairs (0.02-2.56 g, Stoelting) applied to the whisker pad in an ascending series of trials, with three separate von Frey stimulations applied per series. The threshold was determined when mice moved their heads away briskly and strongly from at least one of the three stimuli. Dixon's up-down method was used to determine the 50% probability of escape threshold. For thermal test, a heat stimulus was applied to the maxillary whisker pad skin by radiant heat (IITC Life Science). Heat sensitivity was expressed as head-withdrawal latency (HWL). The radiant heat intensity was adjusted so that basal HWL is between 10-15 s, with a cut-off of 18 s to prevent tissue damage. Chronic inflammatory pain was induced by subcutaneous injection of 20 μL of complete Freund's adjuvant (CFA) into the left side of the buccal pad. […]

Cav3.2 = assay: Western blot of Cav3.2 protein in TG cells / TGs; assay type: cell-based, mouse; conditions: 100 nM Nmb
Cav3.1 (α1G) = assay: Cav3.1 channel currents in HEK293 cells coexpressing NmbR; assay type: cell-based, human; conditions: 100 nM Nmb; -110 mV to -30 mV; n = 10
[2] = test system: p42 MAPK in Rat-1 cells transfected with the Nmb-preferring receptor; conditions: PKC-independent and pertussis toxin-insensitive; ref [62]; cited from earlier work
Description: In contrast, stimulation of PKC either by insulin-like growth factor in dorsal root ganglion neurons or by angiote ...

[3] = test system: mechanical hypersensitivity in mice; assay: Orofacial stimulation (operant) test, total contact time; assay type: in vivo, mouse; conditions: 1 h after intra-TG 1 nmol Nmb
Description: Mice were housed on a 12 h light/dark cycle, maintained in a humidity- and temperature-controlled room with water available ad libitum and were acclimated to the experimenter for 2 d before the first behavioural observations. Experimenters were blinded to the treatment or genotypes of the mice. As described previously, [31], an Orofacial Stimulation Test (Ugo Basile, Italy) was used for the measurement of hypersensitivity to the mechanical stimulation of the trigeminal area. Briefly, the mice initially underwent one week of adaptation trainings after a 12 h fasting food period. Each mouse was then placed in a cage in which there was an Orofacial Stimulation Test system. […] The contact number and total duration of time the mouse spent acquiring the reward were analyzed with the ORO software.
For experiments that several time points are needed to be checked in 24 h, von Frey test was used, as orofacial stimulation test can be checked only once a day, [32]. […] Mechanical hypersensitivity was assessed as described in previous studies, [33]. In brief, the threshold was assessed with a set of von Frey hairs (0.02-2.56 g, Stoelting) applied to the whisker pad in an ascending series of trials, with three separate von Frey stimulations applied per series. The threshold was determined when mice moved their heads away briskly and strongly from at least one of the three stimuli. […]

PKA = PKA activity assay in TG cells (Pep Tag); assay type: cell-based, mouse; conditions: 100 nM Nmb, 30 min; triplicate
Description: PKA enzymatic activity in cell lysates was measured using the Pep Tag assay for nonradioactive detection of PKA (Promega, Madison, WI, USA) as described in our previous studies. Briefly, TG cells were cultured in 12-well plates and preincubated with BIM23042 (0.5 μM) or compound C (10 μM) followed by exposure to 100 nM Nmb for 30 min. TG cells were washed with ice-cold phosphate-buffered saline and placed on ice. PKA was extracted from the cell lysates with cold PKA extraction buffer (25 mM Tris-HCl, pH 7.4, 0.5 mM EDTA, 0.5 mM EGTA, 10 mM β-mercaptoethanol, 1 μg/mL leupeptin and 1 μg/mL aprotinin). The assay was conducted according to the manufacturer's instructions.

Neuromedin B [Nmb]
head withdrawal latency effect, duration [1]: maintained at 3 h | head withdrawal latency (HWL) ([1]; at 1 h): significantly decreased the head withdrawal latency | Cav3.2 protein expression in TG cells (Cav3.2): did not affect the Cav3.2 protein expression | increase of Cav3.1 channel currents (Cav3.1 (α1G)): 0.7 ± 1.2% | p42 MAPK activation [2]: activated p42 MAPK | total contact time [3]: significantly reduced | PKA activity (PKA): increase in PKA activity
